# In a melting point compilation (Tetko et al.; mined from patent text by program, amines drawn as free bases though some values may be those of a salt):
row,melting point [°C],Structure (SMILES)
1,191,CC(=O)c1cccc(C=CC(=O)N2CCc3c([nH]c4ccccc34)C2c2ccc3c(c2)OCO3)c1 (stereo not given)
2,166 to 168,CCOC(=O)c1cnc2ccc(I)cn2c1=O
3,197 to 198,Nc1nc(=O)n(C2CC(O)C(CO)O2)cc1-c1ccccn1 (stereo not given)
4,89 to 92,COP(=O)(OC)C(O)=Cc1ccc(Cl)cc1
5,110,c1cc(CC2CCNC3CCCN23)ccc1CC1CCNC2CCCN12 (stereo not given)
6,152 to 154,O=Cc1c(Cl)nc2n(c1=O)CCS2
7,144 to 146,Cc1nn(C)c(C(=O)N(C)C)c1Nc1ccccc1[N+](=O)[O-]
8,167 to 168,CCCc1c(C#N)c(-c2ccc(C#N)cc2)c(C)n1Cc1cnc(Cl)c(COC(=O)CCC(=O)O)c1
9,182,O=C(Cc1ccccc1)CC1c2ccccc2C(=O)N1c1ccc2ccc(Cl)nc2n1 (stereo not given)
10,108 to 110,O=C(CCCCCS(=O)c1ccc(-c2ccc(Cl)cc2)cc1)NO (stereo not given)
11,110 to 113,Cc1c(C(=O)NCc2ccc3c(Br)c(OC(Cc4ccccc4)C(=O)O)ccc3c2)oc2ccccc12 (stereo not given)
12,113 to 115,COC(=O)c1cc(S(C)(=O)=O)ccc1OC
13,109 to 110,CCCc1c(OCCCCCCc2cccc(CCCCCC(=O)O)c2CCC(=O)O)ccc2c1OCCC2=O
14,98 to 110,C=C1c2cnccc2CC(=O)c2ccccc21
15,89,CC(C)OC(=O)c1cc(NC(=S)OC(C)C)ccc1Cl
16,260,O=C(O)c1cccc(-c2nc(=O)c3ccccc3s2)n1
17,44.6 to 46.2,CCOC(OCC)c1cccc2c1Sc1ccccc1N2C
18,174 to 176,COc1ccccc1C1(Cc2ccccc2)C(=O)N(C)c2ccccc21 (stereo not given)
19,140 to 143,C#CCN(Cc1cc2c(=O)n(C)c(CN3CCOCC3)nc2cc1Cl)c1ccc(C(=O)OC(C)(C)C)cc1
20,47 to 48,C=C1N(CCCCCCC)C(=O)OC12CCN(Cc1ccccc1)CC2
21,> 250,O=C(O)Cn1c(-c2ccc(Cl)cc2)nc2ccc(Cl)nc21
22,125 to 126,CCC(C)OC(=O)SN(C(=O)N1CC2(C(=O)OC)CCc3ccccc3C2=N1)c1ccc(C(F)(F)F)cc1 (stereo not given)
23,114 to 116,CCC(=O)NCCC1CCc2cc(Br)c3c(c21)CCCO3 (stereo not given)
24,149 to 151,CNC(=O)CC1CN=C(c2cc3cc(Oc4ccc(S(C)(=O)=O)nc4)cc(OC(COC)COC)c3[nH]2)S1 (stereo not given)

row,melting point [°C],Structure (SMILES)
1,101 to 103,Cc1ncncc1C(=O)Nc1ccc(-n2nc(C(F)(F)F)cc2C2CC2)c(F)c1
2,186 to 188,CCc1nn(-c2c(Cl)cc(Cl)cc2Cl)c(N)c1C(N)=O
3,48 to 49,COC(=O)c1cccc2cc(C)sc12
4,301 to 303,O=c1[nH]c2ccccc2cc1-c1nnn[nH]1
5,278 to 280,Oc1ccc(O)c(-c2nc3ccc(O)cc3o2)c1
6,130 to 132,CC(C)(C)N1OC(c2ccccc2)(N2CCOCC2)c2cc(Cl)ccc21 (stereo not given)
7,120 to 122,Cn1c(C(F)(F)F)cc(F)c(-c2ccc(Cl)cc2)c1=O
8,56 to 57,OCCc1ccc2sccc2c1
9,139 to 141,COC(=O)CCNC(=O)c1cc(Cl)c([N+](=O)[O-])cc1[N+](=O)[O-]
10,130,CCSC(c1ccc(Cl)cc1Cl)C(C(=O)C(C)(C)CF)n1cncn1 (stereo not given)
11,38 to 39,CCC(C)Nc1c([N+](=O)[O-])cc(C(F)(F)F)c(C)c1[N+](=O)[O-] (stereo not given)
12,77 to 78,COc1ccc2ccnc(Cl)c2c1
13,118 to 121,CCc1nn2c(-c3ccc(Cl)cc3Cl)cccc2c1N(CC)CC
14,> 300,CCCCNc1nc(=O)c2c(C)nn3c2n1CC(C)=C3c1ccccc1
15,179 to 182,Cc1c(NC(=O)c2ccc(-c3ccc(F)cc3)cc2)ccc2cc(C(C)N3CCCC3)cnc12 (stereo not given)
16,134,COc1cccc(-c2nc(N)ncc2-c2ccc(=O)[nH]n2)c1
17,201,CCOC(=O)C1=C(C)Nc2nc(N3CCOCC3)nc(N3CCOCC3)c2C1c1ccccc1[N+](=O)[O-] (stereo not given)
18,124 to 126,"CCOC(=O)C1=C(C)NC(CSC(=N)N)=C(C(=O)OCC)C1c1cccc([N+](=O)[O-])c1 (single isomer, unassigned; (+))"
19,30 to 31,C=C(C)C(=O)OCCCCOc1ccc(C(=O)Cl)cc1
20,210,O=C(O)c1ccn2c1C(c1cccnc1)CC2 (stereo not given)
21,218 to 221,O=C(/C=C/c1c[nH]c2ccc(OCc3ccccc3)cc12)c1ccncc1
22,172 to 174,NC(=O)c1cc(COc2ccc([N+](=O)[O-])cc2)ccn1
23,78,Cc1ccc(NC(=O)C(C)C)o1
24,240,N#Cc1c(N2CCNCC2)c2cc(F)ccc2n(Cc2ccc(F)cc2)c1=O

row,melting point [°C],Structure (SMILES)
1,145 to 148,CNC(=C[N+](=O)[O-])NCCCCc1nc[nH]c1Br
2,130,Cc1ccc(OCC(CO)NC(C)(C)C)c(-c2ccc(=S)[nH]n2)c1 (stereo not given)
3,94 to 96,COCCOC(=O)NCC(C)(C)N
4,151 to 154,CCCNCCc1ccc(NS(=O)(=O)c2ccc(OC(F)(F)F)cc2)cc1
5,192 to 194,Cc1ccc(C(=O)Nc2cc(N3CCN(C)CC3)cc(C(F)(F)F)c2)cc1Nc1nccc(-c2cccnc2)n1
6,92 to 94,COC(=O)CCCCNC(=O)C(CO)NS(=O)(=O)c1ccc(Cl)cc1 (racemic)
7,90 to 92,Brc1ccc(-c2coc3ccc(-c4ccccc4)cc23)cc1
8,146 to 147,CNC(=O)c1cccc(NC(=O)Cc2cc(OC)cc(OC)c2)c1
9,213 to 214,CCOC(=O)c1ccc(-c2c(Cl)c(CN3C(=O)CCC3=O)nc3sc4c(c23)CCNC4)cc1
10,259,O=C(Cc1ccc(O)cc1)c1c(O)cc(O)cc1O
11,41.5,COC(=O)CCCCCCCCCCCCCCC=O
12,190 to 193,O=C1NCCN(CC(=O)N2CCOCC2)C1c1cccs1 (stereo not given)
13,118 to 120,CC(CO)Nc1cc(Oc2nn(C)c(C(F)(F)F)c2Cl)ccc1[N+](=O)[O-] (stereo not given)
14,111,CS(=O)(=O)c1ccc(-c2ccc(C3C(CCC(O)c4ccc(F)cc4)C(=O)N3c3ccc(F)cc3)cc2)cc1 (stereo not given)
15,222,NC(=O)C1=C(O)C(NC(=S)c2ccccc2)C2CC3Sc4c(Cl)ccc(O)c4C(=O)C3=C(O)C2(O)C1=O (stereo not given)
16,260 to 261,c1ccc2c(c1)nc(Nc1ccc3cc[nH]c3c1)c1nc(C3CCCC3)[nH]c12
17,241 to 243,CC1(C)Oc2ccc(C#N)cc2C2C1OC(=O)CN2c1ccccc1 (stereo not given)
18,114 to 117,Cc1nc(C)c(Cl)c(NCc2nccc(OCCCCSCCn3c([N+](=O)[O-])cnc3C)c2C)n1
19,195 to 198,O=S1(=O)Cc2ccc(Cl)cc2C(c2ccc(F)cc2)=NN1
20,186 to 191,COc1cn(-c2cccc(Br)c2F)nc(-c2ccnn2-c2ccccc2)c1=O
21,117 to 124,CCCCCCCCCCCCCC(O)CNCCCCCCNCC(O)CCCCCCCCCCCCC (stereo not given)
22,273 to 274,CNC(=O)c1ccc(Nc2nc(O[C@H]3CCOC3)c3c(-c4ccc5nc(C)oc5c4)c[nH]c3n2)c(C)c1
23,> 290,Cc1c(Br)cc(Cl)c(NS(=O)(=O)c2n[nH]c(NC=O)n2)c1Cl
24,145,CC(=O)Nc1ccc(-c2cc(C(=O)c3ccc(Cl)cc3Cl)sc2N2CCOCC2)cc1

row,melting point [°C],Structure (SMILES)
1,166 to 168,Cc1c(C)c(N2C(=O)c3ccccc3C2=O)c(C)c2c1OC(C)(C)C2
2,94 to 96,COC(=O)[C@H]1O[C@@H](n2cnc3c(Cl)ncnc32)[C@H](OC(C)=O)[C@@H]1N=[N+]=[N-]
3,163 to 165,COc1ccc(C(=O)Nc2ccc(-c3ccc(-c4noc(C)n4)cc3C)cc2)cc1CCCN(C)C
4,120 to 122,COC(=O)c1cc2ncnn2nc1NCCCN1CCC(OC(c2ccccc2)c2ccccc2)CC1
5,221 to 224,Oc1ccc(O)c2c1CC(O)C(O)C2 (stereo not given)
6,80 to 81,CCCCSCC(=O)c1ccc2c(c1)n(C)c(=O)n2C
7,156 to 160,OC(Cn1ccnc1)c1ccc2ccccc2c1 (stereo not given)
8,109,Cn1cc(Cl)c2cc(C=O)ccc21
9,105 to 106,C=C[C@@H]1CCC(=O)N1C(=O)[C@@H](C)Sc1cc(C(C)(C)C)c(O)c(C(C)(C)C)c1
10,172 to 174,COc1cc(-c2nc(C)no2)cc2oc(=O)c(C)c(C)c12
11,138 to 139,COC(=O)C1=C(CCc2ccccc2)NC(CC(=O)N2CCN(C)CC2)=C(C(=O)OC)C1c1c(Cl)cccc1Cl (stereo not given)
12,120 to 121,CSC(=NCCSCc1ncccc1Cl)NC#N
13,198 to 200,CC(=O)Nc1ccc(-c2cccc(C3=NC(C)(C)Cc4ccc5c(c43)CC(C)(C)O5)c2)cc1
14,213,O=C(O)CCCCCn1c2ccccc2c(=O)c2cc(Br)ccc21
15,96 to 97,Cc1ccccc1Sc1cccc(CC(=O)O)c1O
16,160 to 161,Cc1c(C)c2c(c(C)c1O)SC(CCC(N)=O)O2 (stereo not given)
17,206 to 208,COCc1cn2c(C)c(C)nc2c2c1C(=O)[C@H](O)[C@@H](c1ccccc1)N2
18,> 300,O=[N+]([O-])c1cc(-c2cccnc2)ccc1O
19,88 to 89,Cc1c(Cl)c(Cl)c(Cl)c(CCl)c1Cl
20,235 to 237,CS(=O)(=O)NC[C@@H]1CN(c2ccc(N3CCC(=CC#N)CC3)c(F)c2)C(=O)O1
21,174 to 175,CCCOc1ccc(CO)cc1-c1nc2c(CCC)nn(C)c2c(=O)[nH]1
22,223 to 225,CC1(C)C(=O)Nc2ccc(-c3ccc([N+](=O)[O-])s3)cc21
23,272 to 273,OCCn1cc(-c2cc3nccnc3[nH]2)c2ccccc21
24,109 to 110,Cc1cnc(Cl)c(OCC(O)CNC(C)C)n1 (stereo not given)

row,Structure (SMILES),melting point [°C]
1,Cc1cn(C2CC(OP(N)O)C(CO[Si](C)(C)C(C)(C)C)O2)c(=O)[nH]c1=O (stereo not given),68 to 70
2,CCN(C(C)=O)c1cccc(-c2ccnc3c([N+](=O)[O-])cnn23)c1,176 to 178
3,Cc1nnc(CCl)n1-c1ccc(Cl)cc1C(=O)c1ccccc1,139 to 140
4,O=C(NC1N=C(c2ccccc2F)c2ccccc2NC1=O)c1ccc[nH]1 (racemic),271 to 274
